Laboratory results taken from ChEMBL document CHEMBL4342454, “Unraveling Structures Containing Highly Conjugated Pyrrolo[4,3,2-de]quinoline Cores That Are Deficient in Diagnostic Proton NMR Signals” (J Nat Prod, 2020).
The source made the active and inactive calls.

Assays:
Hep293TT = test: Cytotoxicity against human Hep293TT cells after 48 hrs by sulforhodamine B assay; format: functional, cell-based
Homo sapiens [1] = species on record: Homo sapiens; test: Cytotoxicity against human D283 cells after 48 hrs by sulforhodamine B assay; format: functional, cell-based
[2] = test system: Yersinia pseudotuberculosis; test: Inhibition of Yersinia pseudotuberculosis Type 3 secretion system protein by SDS-PAGE analysis
A673 = test: Cytotoxicity against human A673 cells after 48 hrs by sulforhodamine B assay; format: functional, cell-based
Homo sapiens [3] = species on record: Homo sapiens; test: Cytotoxicity against human SJCRH30 cells after 48 hrs by sulforhodamine B assay; format: functional, cell-based

Cc1nc2c(cc1-c1ccc(O)cc1)cc1c3c(c[nH]c32)CCN1C
inactive: Activity (Hep293TT) | Activity (Homo sapiens [1]) | inhibition [2] | Activity (A673) | Activity (Homo sapiens [3])

CN1CCc2c[nH]c3c2c1cc1[o+]c2cc4c5c(c[nH]c5c2nc13)CCN4C
inactive: Activity (Hep293TT) | Activity (Homo sapiens [1]) | inhibition [2] | Activity (A673) | Activity (Homo sapiens [3])
